Assay [1] concerns Con A-induced suppression. The experiment in a line: Reversal of Con A-induced suppression of the splenic plaque-forming cell (PFC) response to SRBC in mice. It counts as in vivo. To be noted: for Reversal of Con A-induced suppression (result in words): mice, PFC response to SRBC; for Activity / effective amount on a molar basis relative to the PF4 holoprotein: restoring suppressed immune responses in mice. The procedure: Concanavalin A (Miles--Yeda Ltd., Research Products, Israel) was reconstituted with saline and kept frozen. Dilutions from the frozen stock were stored at 4° C. and injected i.v. into mice one day prior to antigen, sheep erythrocytes (SRBC). SRBC were obtained from Colorado Serum Company (Denver, Colorado) washed, counted and injected intraperitoneally (i.p.) in mice. Human serum or platelet releasate was administered i.v. one to two hours before Con A i.v.
The spleens of the mice were assayed for plaque-forming cells (PFC) on day 5 after injection of sheep red blood cells. The assay employed was as follows: single-cell suspensions were prepared from individual spleens of mice. The cells were suspended in Hanks' Balanced Salt Solution (Gibco Laboratories, Grand Island, New York) and washed. Direct PFC were enumerated using the well-known method of Jerne, N.K. et al (in Cell-Bound Antibody, Amos, E. and Koprowsky, H. eds., Wistar Institute Press. pp. 109-111, […]) with the slide modification of Mishell, R.I. and Dutton, R.W. (J. Exp. Med. 126:423, 1967), both incorporated by reference. […]
When treated with thrombin or A23187 (Calcium ionophore), platelets also release alpha granule constituents other than PF4. In particular, they release LA-PF4 and PDGF. The inventors tested the ability of LA-PF4 and PDGF to overcome suppression induced by 5 μg Con A. […]
Mice were injected with 10 micrograms of Con A i.v. on day -1 (except in the positive control, which received no Con A) and on day 0 with 2.5×10^6 SRBC per mouse as in Example 2 above. On day -1, the mice also received either: Nothing (100% control), Con A only, platelet releasate (equivalent to the amount of PF4 holoprotein contained in the platelet releasate from 2×10^7 platelets or about 0.12 microgram/mouse) and various concentrations of the above-mentioned synthetic C-terminal peptide of human PF4.

Assay [2] deals with spleen, lymph node and thymus cells. The experiment in a line: Absorption of immunoregulatory activity by cells from lymphoid organs, read out as reversal of Con A-induced suppression (PFC/spleen). The class given is in vivo, CB6F1 mouse. The procedure: The spleens of the mice were assayed for plaque-forming cells (PFC) on day 5 after injection of sheep red blood cells. The assay employed was as follows: single-cell suspensions were prepared from individual spleens of mice. The cells were suspended in Hanks' Balanced Salt Solution (Gibco Laboratories, Grand Island, New York) and washed. Direct PFC were enumerated using the well-known method of Jerne, N.K. et al (in Cell-Bound Antibody, Amos, E. and Koprowsky, H. eds., Wistar Institute Press. pp. 109-111, […]) with the slide modification of Mishell, R.I. and Dutton, R.W. (J. Exp. Med. 126:423, 1967), both incorporated by reference.
In order to confirm and expand this finding, 1 ml o serum, diluted 1:2, was absorbed twice for thirty minutes at 4° C. using half the number of cells for each absorption as are listed for spleen (Sp1), lymphnode (LN) and thymus (Thy) in Table 3. Each CB6F1 mouse received 0.2 ml of a 1:4 dilution of absorbed or unabsorbed serum i.v. one to two hours before administration of 2×10^6 SRBC i.v. Plaque-forming cell response was measured as in Example 2.
The experiments were performed exactly as described for the PF4 holoprotein in Example 4 above, except that 0.5 (Expt. 1) or 2.5 micrograms (Expt. 2) of the PF4 tridecapeptide was administered.

Assay [3] concerns monocytes. The conditions noted are these: Osterman et al, Biochem. Biophys. Res. Comm. 107:130-135, 1982; cited from earlier work.
Where [4] appears, read: 10 micrograms Con A, 0.7-1 μg Tridecapeptide.
The mark [5] stands for this setting: 10 micrograms Con A, 2.5-7 μg Tridecapeptide.
[6] abbreviates: 10 micrograms Con A, 2.5-7 μg Tridecapeptide on day -1, n 5-10.

No end group written: not given here.

With “Pro-Leu-Tyr-Lys-Lys-Ile-Ile-Lys-Lys-Leu-Leu-Glu-Ser-COOH (PLYKKIIKKLLES-OH) [Tridecapeptide, carboxy-terminal 13 amino acid residues of human PF4]”, in assay [1] (0.7-7 micrograms administered to mice), the “Reversal of immunosuppression induced by Con A (result in words)” value was “active in reversing the immunosuppression induced by Con A”. In addition, the “Expt.1 % (of 100% control)” value in assay [1] (10 micrograms Con A, 0.007 μg Tridecapeptide) is listed as 52%; in assay [1] (10 micrograms Con A, 0.07 μg Tridecapeptide), 37%; in assay [1] (setting [4]), 95%; in assay [1] (setting [5]), 99%. Besides, the “Geom. Mean PFC/Spleen (SE), Expt.1 PFC” value in assay [1] (10 micrograms Con A, 0.007 μg Tridecapeptide on day -1, n 5-10) is reported as 5,700(1.4) PFC/Spleen; in assay [1] (10 micrograms Con A, 0.07 μg Tridecapeptide on day -1, n 5-10) it was 4,000(1.4) PFC/Spleen; in assay [1] (10 micrograms Con A, 0.7-1 μg Tridecapeptide on day -1, n 5-10), 10,400(1.1) PFC/Spleen; in assay [1] (setting [6]) it was 10,900(1.2) PFC/Spleen. The “Expt.2 % (of 100% control)” value in assay [1] (setting [4]) stood at 226%. For the same substance, the “Expt.3 % (of 100% control)” value in assay [1] (setting [5]) worked out at 270%. Moreover, in assay [1] (setting [6]), the “Geom. Mean PFC/Spleen (SE), Expt.3 PFC” value was 38,800(1,1) PFC/Spleen. Also, the “Reversal of Con A-induced suppression (result in words)” value in assay [1] was “able to overcome Con A-induced suppression in a dose-dependent fashion”. Besides, the entries for the “Activity / effective amount on a molar basis relative to the PF4 holoprotein” value in assay [1] and in assay [1] (listed as PF4 tridecapeptide) were “less than that of the holoprotein” and “About three times more”, respectively. Also, in assay [2] (SRBC + Con A, 0.5 μg/mouse tridecapeptide, unabsorbed or absorbed with cells), the “Geom mean PFC/Spleen, Expt. 1 Geom. Mean” value was 23,488 PFC/Spleen. In addition, the “Geom mean PFC/Spleen, Expt. 2 Geom. Mean” value in assay [2] (SRBC + Con A, 2.5 μg/mouse tridecapeptide, unabsorbed or absorbed with cells) is listed as 38,790 PFC/Spleen. In assay [2] (normal mouse spleen cells), the “Absorption of the immunoregulatory activity by cells (result in words)” value was “spleen cells can absorb”. In addition, in assay [3], the “Chemotactic activity for monocytes (result in words)” value is on record as “potent chemotactic agent”.

As for “PDGF: platelet-derived growth factor, platelet alpha-granule constituent [reference compound]”, the “Geom. Mean of PFC/Spleen On Day 5, Expt. 1” value in assay [1] (5 μg Con A, antilog of standard error ≤ 1.1, n = 4, PDGF 0.003 μg per mouse) is recorded as 8,370 PFC/Spleen. Besides, the “Immunomodulatory activity against suppression induced by 5 μg Con A (result in words)” value in assay [1] (concentrations well below those in serum: PDGF 0.003 μg, LA-PF4 0.6 μg, purified PF4 0.2 to 0.6 μg per mouse) is “little or not activity”. For the same substance, the “Reversal of Con A-induced suppression (result in words)” value in assay [1] is reported as “no significant immunomodulating activity”.

These data come from US4844895A, “Composition containing a peptide fragment of platelet factor four and method for restoring suppressed immune responses” (New York University, priority 1987, dated 1989).
